{"source": "patent US11926624B2", "about": "(INTERNATIONAL PAPER COMPANY, priority 2018, dated 2024)", "origin": "cited, not measured here", "key": {"Renilla Luciferase": {"target": "T1, Renilla Luciferase (Renilla reniformis, UniProt P27652)", "T1 sequence (P27652 1-311)": "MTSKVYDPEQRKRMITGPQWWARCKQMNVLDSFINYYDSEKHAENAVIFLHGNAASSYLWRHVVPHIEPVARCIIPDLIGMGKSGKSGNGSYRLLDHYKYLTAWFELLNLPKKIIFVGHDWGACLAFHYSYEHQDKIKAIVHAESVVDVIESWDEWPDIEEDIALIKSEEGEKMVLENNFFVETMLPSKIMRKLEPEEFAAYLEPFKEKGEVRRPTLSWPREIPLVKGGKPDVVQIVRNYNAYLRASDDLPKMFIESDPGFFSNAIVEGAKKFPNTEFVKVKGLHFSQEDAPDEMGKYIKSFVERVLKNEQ", "settings": "for Initial Intensity / Total Light / Aem: with Renilla Luciferase; for Initial Intensity: luminescent intensity as % initial intensity; for Total Light: native = 100"}, "[1]": {"test_system": "Gaussia luciferase (Gluc)"}, "aequorin": {"target": "T2, aequorin (Aequorea victoria, UniProt P07164)", "T2 sequence (P07164 8-196)": "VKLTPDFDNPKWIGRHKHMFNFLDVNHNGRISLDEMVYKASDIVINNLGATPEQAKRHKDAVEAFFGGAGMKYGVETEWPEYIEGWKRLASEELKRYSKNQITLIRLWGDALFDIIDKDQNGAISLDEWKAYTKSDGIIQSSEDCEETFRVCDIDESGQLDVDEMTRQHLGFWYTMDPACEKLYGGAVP", "settings": "for luminescence intensity relative to coelenterazine (native form): coelenterazine-aequorin/apoaequorin complex"}}, "note": "Read-outs that look alike come from different tables or passages of the source.", "data": [{"compound": "8-benzyl-2-(4-hydroxybenzyl)-6-(4-hydroxyphenyl)imidazo[1,2-α]pyrazin-3(7H)-one [coelenterazine]", "values": [{"measurement": "Initial Intensity", "setting": "Renilla Luciferase; listed as native", "result": 45, "unit": "%"}, {"measurement": "Initial Intensity", "setting": "Renilla Luciferase; listed as native coelenterazine", "result": "about 45%"}, {"measurement": "Total Light", "setting": "Renilla Luciferase", "result": 100, "unit": "%"}]}, {"compound": "O=c1c(Cc2ccccc2)nc2c(Cc3ccccc3)[nH]c(-c3ccccc3)cn1-2", "note": "[coelenterazine 400a, (2-2′(4-dehydroxy)) coelenterazine]", "values": [{"measurement": "emission maximum", "setting": "Renilla Luciferase", "result": "about 400 nm"}, {"measurement": "substrate quality for Renilla luciferase", "setting": "Renilla Luciferase", "result": "good substrate"}, {"measurement": "oxidation with Gaussia luciferase", "setting": "[1]", "result": "does not oxidize well"}]}, {"compound": "O=c1c(Cc2ccc(O)cc2)nc2c(CC3CCCC3)[nH]c(-c3ccc(O)cc3)cn1-2", "note": "[coelenterazine cp]", "values": [{"measurement": "Aem", "setting": "Renilla Luciferase", "result": 470, "unit": "nm"}, {"measurement": "Total Light", "setting": "Renilla Luciferase", "result": 23, "unit": "%"}]}, {"compound": "O=c1c(Cc2ccc(F)cc2)nc2c(Cc3ccccc3)[nH]c(-c3ccc(O)cc3)cn1-2", "note": "[coelenterazine f]", "values": [{"measurement": "Aem", "setting": "Renilla Luciferase", "result": 473, "unit": "nm"}, {"measurement": "Initial Intensity", "setting": "Renilla Luciferase", "result": 45, "unit": "%"}, {"measurement": "Total Light", "setting": "Renilla Luciferase", "result": 28, "unit": "%"}, {"measurement": "luminescence intensity relative to coelenterazine (native form)", "setting": "aequorin", "result": "about 20 times"}, {"measurement": "emission maximum longer than that of the native form", "setting": "aequorin; coelenterazine-apoaequorin complex", "result": "about 8 nm"}]}, {"compound": "O=c1c(Cc2ccc(F)cc2)nc2c(CC3CCCC3)[nH]c(-c3ccc(O)cc3)cn1-2", "note": "[coelenterazine fcp]", "values": [{"measurement": "substrate quality for Renilla luciferase", "setting": "Renilla Luciferase", "result": "poor substrate"}, {"measurement": "luminescence intensity relative to coelenterazine (native form)", "setting": "aequorin", "result": "about 135 times"}]}]}
